Active and inactive are the calls of the source.
How the values were obtained:
Cysteine protease ATG4B = Cysteine protease ATG4B (Homo sapiens, UniProt Q9Y4P1); format: functional;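 further: Fluorescence-based dose-response confirmation assay measuring inhibition of ATG4B activity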
cells = format: functional
Phospholipase A2 = Phospholipase A2 (Homo sapiens, UniProt P04054); format: functional;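 further: confirmatory dose-response counterscreen on phospholipase A2, testing hits that came from an ultra-high-throughput screen for ATG4B inhibitors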
Chain of Phospholipase A2 (P04054 whole entry): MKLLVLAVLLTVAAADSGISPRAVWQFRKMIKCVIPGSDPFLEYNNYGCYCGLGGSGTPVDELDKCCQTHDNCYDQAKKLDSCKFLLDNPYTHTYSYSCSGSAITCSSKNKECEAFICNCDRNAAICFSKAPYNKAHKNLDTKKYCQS

Phospholipase D1 = Phospholipase D1 (Homo sapiens, UniProt Q13393); test: PLD1 inhibitor potency in cells, dose response (AID 602151); format: functional;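 further: cellular PLD1 assay in Calu-1 cells stimulated with PMA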
Chain of Phospholipase D1 (Q13393 whole entry): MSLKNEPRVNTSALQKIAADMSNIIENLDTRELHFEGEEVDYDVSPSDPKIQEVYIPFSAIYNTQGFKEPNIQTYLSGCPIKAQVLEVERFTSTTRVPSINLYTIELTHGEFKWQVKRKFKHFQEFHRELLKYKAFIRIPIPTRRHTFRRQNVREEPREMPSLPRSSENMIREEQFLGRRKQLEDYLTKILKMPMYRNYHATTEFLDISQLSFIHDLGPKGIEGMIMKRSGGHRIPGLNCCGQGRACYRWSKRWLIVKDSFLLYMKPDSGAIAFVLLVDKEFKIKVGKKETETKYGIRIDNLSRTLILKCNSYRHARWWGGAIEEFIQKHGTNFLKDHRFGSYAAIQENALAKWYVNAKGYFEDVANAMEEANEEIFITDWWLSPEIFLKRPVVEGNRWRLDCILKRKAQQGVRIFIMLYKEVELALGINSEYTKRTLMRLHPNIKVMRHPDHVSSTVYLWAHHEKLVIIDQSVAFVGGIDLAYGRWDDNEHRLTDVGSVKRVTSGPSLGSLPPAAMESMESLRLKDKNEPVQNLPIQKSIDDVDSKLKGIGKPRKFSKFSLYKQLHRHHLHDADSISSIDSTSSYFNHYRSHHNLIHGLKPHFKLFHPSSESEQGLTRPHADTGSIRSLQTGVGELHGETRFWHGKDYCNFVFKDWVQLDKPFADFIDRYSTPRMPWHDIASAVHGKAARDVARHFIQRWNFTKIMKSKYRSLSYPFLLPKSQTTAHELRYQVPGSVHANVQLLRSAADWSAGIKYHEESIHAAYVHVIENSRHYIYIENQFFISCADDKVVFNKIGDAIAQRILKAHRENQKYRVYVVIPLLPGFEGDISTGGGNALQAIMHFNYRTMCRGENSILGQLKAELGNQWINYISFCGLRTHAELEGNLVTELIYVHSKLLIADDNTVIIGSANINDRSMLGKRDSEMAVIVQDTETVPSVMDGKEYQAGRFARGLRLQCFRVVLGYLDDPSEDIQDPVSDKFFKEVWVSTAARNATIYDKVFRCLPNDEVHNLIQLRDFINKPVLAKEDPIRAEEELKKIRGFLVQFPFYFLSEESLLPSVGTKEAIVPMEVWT

Phospholipase D2 = Phospholipase D2 (Homo sapiens, UniProt O14939); test: PLD2 inhibitor potency in cells, dose response (AID 602147); format: functional;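 further: cellular assay in HEK293 cells overexpressing GFP-tagged PLD2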
Chain of Phospholipase D2 (O14939 whole entry): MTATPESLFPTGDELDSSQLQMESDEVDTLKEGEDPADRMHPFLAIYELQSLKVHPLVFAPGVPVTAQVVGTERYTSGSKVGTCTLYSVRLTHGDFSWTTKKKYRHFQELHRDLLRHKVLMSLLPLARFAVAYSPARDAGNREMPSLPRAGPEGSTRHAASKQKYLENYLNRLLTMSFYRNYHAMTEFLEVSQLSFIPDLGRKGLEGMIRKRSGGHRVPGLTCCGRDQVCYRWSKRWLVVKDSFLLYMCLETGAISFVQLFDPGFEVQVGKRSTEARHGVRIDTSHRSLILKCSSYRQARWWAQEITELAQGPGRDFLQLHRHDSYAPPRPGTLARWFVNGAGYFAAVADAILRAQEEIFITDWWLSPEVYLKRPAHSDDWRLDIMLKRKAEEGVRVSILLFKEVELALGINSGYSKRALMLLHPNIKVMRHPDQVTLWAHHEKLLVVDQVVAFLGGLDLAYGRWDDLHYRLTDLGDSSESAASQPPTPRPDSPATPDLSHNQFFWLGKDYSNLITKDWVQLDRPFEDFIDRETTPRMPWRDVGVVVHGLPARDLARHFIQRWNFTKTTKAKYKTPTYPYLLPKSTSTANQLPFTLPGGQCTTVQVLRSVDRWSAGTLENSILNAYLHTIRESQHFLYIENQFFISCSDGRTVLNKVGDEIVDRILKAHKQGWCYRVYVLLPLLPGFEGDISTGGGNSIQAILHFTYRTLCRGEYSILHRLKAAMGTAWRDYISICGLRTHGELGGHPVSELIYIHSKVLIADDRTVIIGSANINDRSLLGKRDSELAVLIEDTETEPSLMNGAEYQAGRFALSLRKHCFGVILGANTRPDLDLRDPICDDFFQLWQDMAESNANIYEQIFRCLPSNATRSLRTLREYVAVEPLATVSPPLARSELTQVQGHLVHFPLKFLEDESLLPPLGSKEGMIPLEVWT

[1] = biological target: Photoreceptor-specific nuclear receptor (Homo sapiens, UniProt Q9Y5X4); format: functional;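 further: potency for compounds that break the NR2E3 corepressor complex and count as activators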
Chain of Photoreceptor-specific nuclear receptor (Q9Y5X4 whole entry, the tested form may be a part): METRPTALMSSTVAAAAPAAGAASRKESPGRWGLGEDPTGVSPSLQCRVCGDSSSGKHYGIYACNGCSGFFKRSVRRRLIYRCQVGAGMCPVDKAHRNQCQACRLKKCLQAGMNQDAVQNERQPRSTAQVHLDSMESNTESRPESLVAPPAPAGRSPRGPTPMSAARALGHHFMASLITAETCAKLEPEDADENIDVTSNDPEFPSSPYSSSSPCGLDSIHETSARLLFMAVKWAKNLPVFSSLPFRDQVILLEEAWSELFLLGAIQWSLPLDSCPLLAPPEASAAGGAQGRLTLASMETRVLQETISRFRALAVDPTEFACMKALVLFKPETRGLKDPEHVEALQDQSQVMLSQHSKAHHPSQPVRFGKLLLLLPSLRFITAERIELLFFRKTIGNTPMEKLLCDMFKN

[2] = HIV-1 Env-mediated cell fusion inhibitors, dose response, CCR5-tropic Env (AID 2279); format: functional
[3] = biological target: Peroxisome proliferator-activated receptor gamma/Nuclear receptor corepressor 2 (Homo sapiens, UniProt P37231+Q9Y618); format: functional
DNA topoisomerase = DNA topoisomerase (Yersinia pestis, UniProt A0A2S9PM60); test: Y. pestis Topo-I inhibitors, cleavage product readout, dose response, biochemical, cherry-pick (AID 588525)
Chain of DNA topoisomerase (A0A2S9PM60 whole entry): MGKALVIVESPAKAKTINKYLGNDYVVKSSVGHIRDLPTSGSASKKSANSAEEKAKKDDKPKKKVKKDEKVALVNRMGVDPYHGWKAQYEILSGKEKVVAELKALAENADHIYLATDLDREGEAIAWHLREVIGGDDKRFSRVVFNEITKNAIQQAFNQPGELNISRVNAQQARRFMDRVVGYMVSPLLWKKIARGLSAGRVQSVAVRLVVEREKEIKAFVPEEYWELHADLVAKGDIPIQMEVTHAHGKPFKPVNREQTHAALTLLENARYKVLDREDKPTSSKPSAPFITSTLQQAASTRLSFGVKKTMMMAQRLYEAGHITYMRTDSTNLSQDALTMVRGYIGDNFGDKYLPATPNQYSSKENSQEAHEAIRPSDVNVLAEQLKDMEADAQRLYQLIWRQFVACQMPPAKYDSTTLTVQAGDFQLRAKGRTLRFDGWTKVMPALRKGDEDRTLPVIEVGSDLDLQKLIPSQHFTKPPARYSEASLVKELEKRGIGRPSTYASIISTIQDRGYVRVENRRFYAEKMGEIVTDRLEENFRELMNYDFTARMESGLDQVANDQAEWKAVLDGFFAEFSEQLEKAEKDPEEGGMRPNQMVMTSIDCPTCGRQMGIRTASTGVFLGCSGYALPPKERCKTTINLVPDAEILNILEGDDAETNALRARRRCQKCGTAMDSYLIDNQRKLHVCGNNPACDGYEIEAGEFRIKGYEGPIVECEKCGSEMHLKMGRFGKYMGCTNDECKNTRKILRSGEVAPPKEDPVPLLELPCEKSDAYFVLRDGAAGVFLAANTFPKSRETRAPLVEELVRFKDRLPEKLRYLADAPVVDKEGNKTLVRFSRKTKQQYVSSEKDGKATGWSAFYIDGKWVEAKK

HeLa = test: HeLa cell cytotoxicity, dose response, cytotoxicity control, 24 h, cherry-picked samples (AID 504726); format: functional, cell-based, Homo sapiens;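 further: potency for cytotoxicity as loss of luminescence signal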
ORF 73 = ORF 73 (Human herpesvirus 8, UniProt O40947); test: inhibitors of C-LANA binding to LBS DNA, dose response, biochemical, fluorescence polarization, cherry-picked samples (AID 504725); parameters: species or system Human gammaherpesvirus 8;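 further: fluorescence polarization of a labeled DNA duplex reporting LANA DNA binding; potency is for inhibitors that block LANA binding to the DNA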
Insulin-degrading enzyme [4] = biological target: T1, Insulin-degrading enzyme (Homo sapiens, UniProt P14735); test: activators of recombinant IDE enzyme, dose response, counter-screen for IDE activator project, biochemical, fluorescence polarization (AID 588681)
T1 sequence (P14735 whole entry): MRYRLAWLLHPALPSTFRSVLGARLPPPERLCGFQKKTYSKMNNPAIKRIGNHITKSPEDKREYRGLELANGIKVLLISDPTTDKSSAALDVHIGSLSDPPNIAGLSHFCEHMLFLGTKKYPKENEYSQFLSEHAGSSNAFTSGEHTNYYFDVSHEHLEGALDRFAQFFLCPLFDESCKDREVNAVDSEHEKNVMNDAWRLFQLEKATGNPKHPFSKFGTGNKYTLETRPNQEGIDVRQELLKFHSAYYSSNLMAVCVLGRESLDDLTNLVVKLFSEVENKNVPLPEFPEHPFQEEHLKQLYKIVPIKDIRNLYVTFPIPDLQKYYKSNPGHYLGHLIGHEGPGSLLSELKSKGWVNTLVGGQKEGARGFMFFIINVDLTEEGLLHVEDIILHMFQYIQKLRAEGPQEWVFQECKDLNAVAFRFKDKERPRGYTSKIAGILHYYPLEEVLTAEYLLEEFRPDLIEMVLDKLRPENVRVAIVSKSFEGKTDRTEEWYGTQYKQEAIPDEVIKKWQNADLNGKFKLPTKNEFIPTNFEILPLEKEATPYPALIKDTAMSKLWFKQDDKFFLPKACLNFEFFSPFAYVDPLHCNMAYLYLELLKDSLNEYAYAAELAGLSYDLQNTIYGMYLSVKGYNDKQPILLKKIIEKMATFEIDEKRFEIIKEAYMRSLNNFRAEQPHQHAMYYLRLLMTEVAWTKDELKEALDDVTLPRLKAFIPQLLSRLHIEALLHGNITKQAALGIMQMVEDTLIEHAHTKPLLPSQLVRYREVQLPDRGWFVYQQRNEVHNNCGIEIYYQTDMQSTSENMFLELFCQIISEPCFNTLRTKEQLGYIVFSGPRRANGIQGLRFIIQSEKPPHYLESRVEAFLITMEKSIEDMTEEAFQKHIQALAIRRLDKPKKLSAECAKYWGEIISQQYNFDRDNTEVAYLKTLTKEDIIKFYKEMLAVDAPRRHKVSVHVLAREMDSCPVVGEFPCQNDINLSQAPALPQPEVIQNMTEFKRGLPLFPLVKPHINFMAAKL

Insulin-degrading enzyme [5] = biological target: T1, Insulin-degrading enzyme; test: activators of endogenous IDE in HEK cells, dose response, cell-based, fluorescence polarization (AID 588439); format: functional
HEK293 = test: HEK cell cytotoxicity by LDH release, dose response, cytotoxicity control for IDE activator project, fluorescence, HEK cells (AID 588440); format: functional, cell-based; details: Homo sapiens;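 further: cytotoxicity by LDH release measuring loss of membrane integrity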
[6] = biological target: T2, Rac GTPase-activating protein 1 (Homo sapiens, UniProt Q9H0H5); test: MgcRacGAP GTPase-activating activity inhibitors, confirmation, biochemical, ADP Hunter fluorescence, primary and confirmatory (AID 624330); format: functional
T2 sequence (Q9H0H5 whole entry): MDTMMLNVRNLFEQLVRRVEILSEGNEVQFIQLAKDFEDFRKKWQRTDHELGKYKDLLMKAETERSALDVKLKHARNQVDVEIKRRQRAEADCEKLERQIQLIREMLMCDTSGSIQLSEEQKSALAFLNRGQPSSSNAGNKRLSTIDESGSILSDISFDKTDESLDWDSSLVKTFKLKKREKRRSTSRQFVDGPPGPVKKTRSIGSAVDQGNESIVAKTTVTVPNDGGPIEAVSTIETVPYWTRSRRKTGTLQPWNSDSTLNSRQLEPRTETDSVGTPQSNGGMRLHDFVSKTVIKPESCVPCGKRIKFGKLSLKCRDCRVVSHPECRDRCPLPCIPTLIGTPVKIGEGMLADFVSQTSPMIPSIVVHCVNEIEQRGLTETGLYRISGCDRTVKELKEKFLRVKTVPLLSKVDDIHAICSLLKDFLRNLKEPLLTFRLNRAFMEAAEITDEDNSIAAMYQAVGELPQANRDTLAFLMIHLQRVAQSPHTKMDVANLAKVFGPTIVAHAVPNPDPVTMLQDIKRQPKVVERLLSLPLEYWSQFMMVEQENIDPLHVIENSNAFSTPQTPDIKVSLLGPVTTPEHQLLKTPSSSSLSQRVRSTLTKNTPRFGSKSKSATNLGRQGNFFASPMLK

[7] = biological target: T3, Tyrosyl-DNA phosphodiesterase 2 (Homo sapiens, UniProt O95551); test: human TDP2 enzyme inhibitors, dose response, biochemical, epi absorbance, IC50 (AID 743297)
T3 sequence (O95551 whole entry): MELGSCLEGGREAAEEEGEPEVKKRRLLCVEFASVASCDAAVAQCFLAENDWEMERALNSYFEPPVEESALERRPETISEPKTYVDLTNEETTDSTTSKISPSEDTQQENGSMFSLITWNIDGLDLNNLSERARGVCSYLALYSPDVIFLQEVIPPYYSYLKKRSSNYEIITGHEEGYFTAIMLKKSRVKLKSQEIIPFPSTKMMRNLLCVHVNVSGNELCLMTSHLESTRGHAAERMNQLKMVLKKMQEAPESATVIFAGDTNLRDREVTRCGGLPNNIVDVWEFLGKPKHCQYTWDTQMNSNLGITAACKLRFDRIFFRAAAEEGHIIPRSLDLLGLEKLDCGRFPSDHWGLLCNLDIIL

[8] = biological target: T4, Tyrosine-protein phosphatase non-receptor type 7 (Homo sapiens, UniProt P35236); format: functional
T4 sequence (P35236 whole entry): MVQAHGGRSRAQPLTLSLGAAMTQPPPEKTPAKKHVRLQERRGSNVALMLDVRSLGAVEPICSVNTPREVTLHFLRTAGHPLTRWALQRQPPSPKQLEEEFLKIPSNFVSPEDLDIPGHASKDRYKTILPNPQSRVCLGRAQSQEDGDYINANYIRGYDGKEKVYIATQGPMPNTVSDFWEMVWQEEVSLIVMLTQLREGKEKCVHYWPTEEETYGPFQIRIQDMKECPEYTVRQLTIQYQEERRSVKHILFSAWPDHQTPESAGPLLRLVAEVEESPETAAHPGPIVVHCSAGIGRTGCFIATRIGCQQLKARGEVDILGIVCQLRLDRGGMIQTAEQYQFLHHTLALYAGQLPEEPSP

[9] = biological target: Glyceraldehyde-3-phosphate dehydrogenase (Homo sapiens, UniProt P04406)
Chain of Glyceraldehyde-3-phosphate dehydrogenase (P04406 whole entry): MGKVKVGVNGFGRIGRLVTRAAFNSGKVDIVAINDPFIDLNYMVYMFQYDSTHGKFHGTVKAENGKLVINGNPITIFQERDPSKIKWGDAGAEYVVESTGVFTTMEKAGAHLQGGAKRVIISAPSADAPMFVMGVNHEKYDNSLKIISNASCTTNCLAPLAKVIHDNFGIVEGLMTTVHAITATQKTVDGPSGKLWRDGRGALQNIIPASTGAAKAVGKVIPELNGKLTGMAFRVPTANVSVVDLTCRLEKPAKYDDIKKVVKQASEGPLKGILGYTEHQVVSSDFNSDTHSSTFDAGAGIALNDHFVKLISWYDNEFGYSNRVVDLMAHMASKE

[10] = biological target: T5, Dual specificity protein phosphatase 6 (Rattus norvegicus, UniProt Q64346)
T5 sequence (Q64346 whole entry): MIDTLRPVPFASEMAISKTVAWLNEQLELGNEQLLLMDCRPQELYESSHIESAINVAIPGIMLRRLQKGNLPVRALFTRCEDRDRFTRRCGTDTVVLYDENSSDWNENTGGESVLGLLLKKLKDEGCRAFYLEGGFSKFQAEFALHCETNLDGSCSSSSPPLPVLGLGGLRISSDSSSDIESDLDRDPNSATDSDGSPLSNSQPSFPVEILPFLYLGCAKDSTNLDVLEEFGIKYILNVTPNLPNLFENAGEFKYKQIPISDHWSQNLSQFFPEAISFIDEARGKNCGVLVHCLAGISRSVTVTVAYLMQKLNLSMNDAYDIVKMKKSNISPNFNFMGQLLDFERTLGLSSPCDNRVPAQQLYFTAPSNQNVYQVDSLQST

[11] = biological target: Induced myeloid leukemia cell differentiation protein Mcl-1 (Homo sapiens, UniProt Q07820); format: functional
[12] = biological target: T6, Dual specificity protein phosphatase 3 (Homo sapiens, UniProt P51452); test: SAR VHR1 Fluorescent Assay for In Vitro dose response studies. [Related pubchem assays (depositor defined):AID1654, AID1661, AID1878, AID1992, AID2004, AID2070, AID2085]; format: functional
T6 sequence (P51452 whole entry): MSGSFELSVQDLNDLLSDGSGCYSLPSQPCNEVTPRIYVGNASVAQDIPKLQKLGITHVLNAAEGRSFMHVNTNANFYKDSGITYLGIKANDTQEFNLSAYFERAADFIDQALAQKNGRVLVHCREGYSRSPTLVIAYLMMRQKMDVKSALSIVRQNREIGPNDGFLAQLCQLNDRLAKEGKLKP

[13] = biological target: T6, Dual specificity protein phosphatase 3; test: MOA VHR1 Fluorescent secondary assay for identification of redox-state modulating compounds. [Related pubchem assays (depositor defined):AID1654, AID1661, AID1878, AID1957]
[14] = biological target: T4, Tyrosine-protein phosphatase non-receptor type 7; test: redox-dependent HePTP inhibition, mechanism study, biochemical, fluorescence (AID 2068); format: functional
[15] = biological target: Intestinal-type alkaline phosphatase (Mus musculus, UniProt P24822); test: PubChem AID 488785; format: functional
[16] = biological target: Beta-adrenergic receptor kinase 1 (Homo sapiens, UniProt P25098); test: aptamer displacement from bead-bound GRK2 – biochemical, cherry pick 1, bead flow cytometry, dose response (AID 504500)
[17] = biological target: T7, Alkaline phosphatase, tissue-nonspecific isozyme (Homo sapiens, UniProt P05186); test: TNAP enzyme inhibition by screening hits, dose response, selectivity assay for mouse IAP inhibitor project, biochemical, human TNAP, uHTS hits (AID 488906); format: functional
T7 sequence (P05186 whole entry): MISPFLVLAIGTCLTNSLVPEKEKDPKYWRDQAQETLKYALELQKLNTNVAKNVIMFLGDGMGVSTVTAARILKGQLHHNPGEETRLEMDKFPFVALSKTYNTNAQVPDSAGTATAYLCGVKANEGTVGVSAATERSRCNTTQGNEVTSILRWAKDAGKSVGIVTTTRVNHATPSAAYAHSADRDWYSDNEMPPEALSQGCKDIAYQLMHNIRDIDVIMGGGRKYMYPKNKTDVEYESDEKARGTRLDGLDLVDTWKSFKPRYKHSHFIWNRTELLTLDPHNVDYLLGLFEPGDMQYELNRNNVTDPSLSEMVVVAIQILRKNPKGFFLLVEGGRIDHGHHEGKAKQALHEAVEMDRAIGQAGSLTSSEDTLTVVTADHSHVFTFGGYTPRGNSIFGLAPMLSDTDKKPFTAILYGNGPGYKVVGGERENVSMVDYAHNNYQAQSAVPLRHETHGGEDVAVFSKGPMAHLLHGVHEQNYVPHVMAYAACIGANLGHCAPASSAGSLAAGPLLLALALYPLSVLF

[18] = biological target: Intestinal-type alkaline phosphatase (Homo sapiens, UniProt P09923); test: inhibition of human intestinal alkaline phosphatase – biochemical, dose response (AID 488876); format: functional
Chain of Intestinal-type alkaline phosphatase (Homo sapiens, UniProt P09923) (P09923 whole entry): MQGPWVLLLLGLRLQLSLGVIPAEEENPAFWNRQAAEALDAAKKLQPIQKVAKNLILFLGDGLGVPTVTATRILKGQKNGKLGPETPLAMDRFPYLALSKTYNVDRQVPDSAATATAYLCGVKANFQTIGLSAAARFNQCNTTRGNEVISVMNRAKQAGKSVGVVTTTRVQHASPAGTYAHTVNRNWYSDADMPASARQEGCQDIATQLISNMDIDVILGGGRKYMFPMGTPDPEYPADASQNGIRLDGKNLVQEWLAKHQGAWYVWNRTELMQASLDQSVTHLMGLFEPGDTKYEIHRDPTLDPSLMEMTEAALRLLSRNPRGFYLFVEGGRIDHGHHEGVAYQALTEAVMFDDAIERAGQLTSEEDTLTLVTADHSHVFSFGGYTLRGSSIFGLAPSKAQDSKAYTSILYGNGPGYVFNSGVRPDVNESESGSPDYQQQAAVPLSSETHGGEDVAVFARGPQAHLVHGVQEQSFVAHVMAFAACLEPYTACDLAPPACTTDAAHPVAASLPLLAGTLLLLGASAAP

[19] = biological target: T5, Dual specificity protein phosphatase 6; format: functional
Cytochrome P450 1A2 = biological target: T8, Cytochrome P450 1A2 (Homo sapiens, UniProt P05177);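 further: PubChem cytochrome P450 panel assay, CYP1A2 panel member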
T8 sequence (P05177 whole entry): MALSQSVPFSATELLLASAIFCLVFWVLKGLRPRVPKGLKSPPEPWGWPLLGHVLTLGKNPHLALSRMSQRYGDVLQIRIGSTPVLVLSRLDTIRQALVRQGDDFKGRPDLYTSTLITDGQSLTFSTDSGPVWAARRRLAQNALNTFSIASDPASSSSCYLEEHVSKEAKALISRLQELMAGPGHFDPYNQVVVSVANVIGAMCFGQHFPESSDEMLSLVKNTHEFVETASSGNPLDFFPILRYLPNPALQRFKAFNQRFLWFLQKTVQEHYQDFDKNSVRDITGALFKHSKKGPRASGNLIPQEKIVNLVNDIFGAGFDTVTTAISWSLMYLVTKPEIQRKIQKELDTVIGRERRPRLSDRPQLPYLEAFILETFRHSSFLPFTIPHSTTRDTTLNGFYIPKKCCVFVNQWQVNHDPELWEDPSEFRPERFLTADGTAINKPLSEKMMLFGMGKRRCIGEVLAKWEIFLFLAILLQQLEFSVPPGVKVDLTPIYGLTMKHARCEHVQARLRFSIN

Cytochrome P450 2C9 = Cytochrome P450 2C9 (Homo sapiens, UniProt P11712)
Chain of Cytochrome P450 2C9 (P11712 whole entry): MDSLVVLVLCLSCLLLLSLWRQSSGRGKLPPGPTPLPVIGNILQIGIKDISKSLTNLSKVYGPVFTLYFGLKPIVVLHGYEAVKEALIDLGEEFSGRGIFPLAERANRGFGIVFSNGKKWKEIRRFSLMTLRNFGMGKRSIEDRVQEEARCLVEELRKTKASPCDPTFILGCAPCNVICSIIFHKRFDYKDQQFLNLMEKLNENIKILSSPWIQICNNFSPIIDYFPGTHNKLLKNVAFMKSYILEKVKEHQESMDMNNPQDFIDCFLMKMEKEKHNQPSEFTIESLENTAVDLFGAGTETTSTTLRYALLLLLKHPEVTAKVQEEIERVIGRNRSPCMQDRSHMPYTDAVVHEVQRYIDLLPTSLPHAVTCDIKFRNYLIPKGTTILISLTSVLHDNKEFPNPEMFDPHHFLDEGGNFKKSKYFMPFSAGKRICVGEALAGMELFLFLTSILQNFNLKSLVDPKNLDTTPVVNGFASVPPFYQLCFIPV

O=[N+]([O-])c1cc2oc3c(c2c(/C=N/Cc2ccccc2)c1O)CCCC3
active: IC50 (Cysteine protease ATG4B) 1.28 µM | IC50 (cells) 20.6 µM | IC50 (Phospholipase A2) 0.502 µM

C[C@@H](CN1CCC(n2c(=O)[nH]c3cc(I)ccc32)CC1)NC(=O)c1ccc(Cl)cc1
active: IC50 (Phospholipase D1) 0.016 µM | IC50 (Phospholipase D2) 2.4 µM

Cc1cc(N2C(=O)C(O)=C(C(=O)c3cc4ccccc4o3)C2c2cccc(Br)c2)no1 (stereo not given)
active: IC50 [2] > 50 µM | IC50 [3] 1.97 µM | AC50 (DNA topoisomerase) 3.24 µM
> 39.8 µM (not active): IC50 [1]

C[n+]1c2cc(N)ccc2cc2ccc(N)cc21
active: AC50 (HeLa) 7.94 µM | AC50 (ORF 73) 0.285 µM | IC50 [6] 97.5 µM
inactive: EC50 (Insulin-degrading enzyme [4]) > 54.7 µM | EC50 (Insulin-degrading enzyme [5]) > 54.7 µM | IC50 (HEK293) > 89.2 µM | IC50 [7] > 128 µM

O=C(O)c1ccccc1-c1ccc(/C=c2\sc3nc4cc(Br)cnc4n3c2=O)o1
inactive: IC50 [18] > 100 µM
active: IC50 [8] 1.26 µM | IC50 [9] 2.31 µM | IC50 [10] 6.8 µM | IC50 [11] 3.32 µM | IC50 [12] 1.25 µM | IC50 [13] 0.308 µM | IC50 [14] 0.159 µM | IC50 [15] 6.36 µM | EC50 [16] 2.39 µM | IC50 [17] 31.7 µM | IC50 [19] 4.92 µM
inconclusive: AC50 (Cytochrome P450 1A2) 17.8 µM | AC50 (Cytochrome P450 2C9) 20 µM

From ChEMBL document CHEMBL1201862, “PubChem BioAssay data set” (2004)
